The source made the active and inactive calls. The rule behind the calls is not given here.
Key:
Mus musculus [1] = assay: Toxicity in BALB/c albino mouse infected with blood trypomastigote stage of Trypanosoma cruzi assessed as decrease in alkaline phosphatase level in serum at 40 mg/kg, ip administered on day 7 to 12 post-infection measured after day 150 relative to control; assay type: organism-based; design: dose 40 mg/kg, route intraperitoneal; scale not given: the % may be the effect or the level left; conditions: in vivo
Mus musculus [2] = assay: Toxicity in BALB/c albino mouse infected with blood trypomastigote stage of Trypanosoma cruzi assessed as decrease in alkaline phosphatase level in serum at 25 mg/kg, ip administered on day 7 to 12 post-infection measured after day 120 relative to control; assay type: organism-based; design: dose 25 mg/kg, route intraperitoneal; scale not given: the % may be the effect or the level left; conditions: in vivo
Mus musculus [3] = assay: Toxicity in BALB/c albino mouse infected with blood trypomastigote stage of Trypanosoma cruzi assessed as increase in total bilirubin level in serum at 500 mg/kg, ip relative to control; assay type: organism-based; design: dose 500 mg/kg, route intraperitoneal; conditions: in vivo
Mus musculus [4] = assay: Toxicity in BALB/c albino mouse infected with blood trypomastigote stage of Trypanosoma cruzi assessed as increase in total bilirubin level in serum at 40 mg/kg, ip administered on day 7 to 12 post-infection measured after day 150 relative to control; assay type: organism-based; design: dose 40 mg/kg, route intraperitoneal; conditions: in vivo
Mus musculus [5] = assay: Toxicity in BALB/c albino mouse infected with blood trypomastigote stage of Trypanosoma cruzi assessed as change in ALT/GPT level in serum at 25 mg/kg, ip administered on day 7 to 12 post-infection measured after day 120 relative to control; assay type: organism-based; design: dose 25 mg/kg, route intraperitoneal; conditions: in vivo
Mus musculus [6] = assay: Toxicity in BALB/c albino mouse infected with blood trypomastigote stage of Trypanosoma cruzi assessed as change in AST/GOT level in serum at 500 mg/kg, ip relative to control; assay type: organism-based; design: dose 500 mg/kg, route intraperitoneal; conditions: in vivo
Mus musculus [7] = assay: Toxicity in BALB/c albino mouse infected with blood trypomastigote stage of Trypanosoma cruzi assessed as increase in AST/GOT level in serum at 40 mg/kg, ip administered on day 7 to 12 post-infection measured after day 150 relative to control; assay type: organism-based; design: dose 40 mg/kg, route intraperitoneal; conditions: in vivo
Mus musculus [8] = assay: Toxicity in BALB/c albino mouse infected with blood trypomastigote stage of Trypanosoma cruzi assessed as increase in total bilirubin level in serum at 25 mg/kg, ip administered on day 7 to 12 post-infection measured after day 120 relative to control; assay type: organism-based; design: dose 25 mg/kg, route intraperitoneal; conditions: in vivo
Mus musculus [9] = assay: Toxicity in BALB/c albino mouse infected with blood trypomastigote stage of Trypanosoma cruzi assessed as change in LDH level in serum at 500 mg/kg, ip relative to control; assay type: organism-based; design: dose 500 mg/kg, route intraperitoneal; conditions: in vivo
Mus musculus [10] = assay: Toxicity in BALB/c albino mouse infected with blood trypomastigote stage of Trypanosoma cruzi assessed as increase in LDH level in serum at 25 mg/kg, ip administered on day 7 to 12 post-infection measured after day 120 relative to control; assay type: organism-based; design: dose 25 mg/kg, route intraperitoneal; conditions: in vivo
Mus musculus [11] = assay: Toxicity in BALB/c albino mouse infected with blood trypomastigote stage of Trypanosoma cruzi assessed as increase in creatinephophokinase-MB level in serum at 500 mg/kg, ip relative to control; assay type: organism-based; design: dose 500 mg/kg, route intraperitoneal; conditions: in vivo
Mus musculus [12] = assay: Toxicity in BALB/c albino mouse infected with blood trypomastigote stage of Trypanosoma cruzi assessed as change in creatinephophokinase-MB level in serum at 25 mg/kg, ip administered on day 7 to 12 post-infection measured after day 120 relative to control; assay type: organism-based; design: dose 25 mg/kg, route intraperitoneal; conditions: in vivo
Mus musculus [13] = assay: Toxicity in BALB/c albino mouse infected with blood trypomastigote stage of Trypanosoma cruzi assessed as change in uric acid level in serum at 500 mg/kg, ip; assay type: organism-based; design: dose 500 mg/kg, route intraperitoneal; conditions: in vivo
Mus musculus [14] = assay: Toxicity in BALB/c albino mouse infected with blood trypomastigote stage of Trypanosoma cruzi assessed as change in uric acid level in serum at 40 mg/kg, ip administered on day 7 to 12 post-infection measured after day 150 relative to control; assay type: organism-based; design: dose 40 mg/kg, route intraperitoneal; conditions: in vivo
Mus musculus [15] = assay: Toxicity in BALB/c albino mouse infected with blood trypomastigote stage of Trypanosoma cruzi assessed as increase in uric acid level in serum at 25 mg/kg, ip administered on day 7 to 12 post-infection measured after day 120 relative to control; assay type: organism-based; design: dose 25 mg/kg, route intraperitoneal; conditions: in vivo
Mus musculus [16] = assay: Toxicity in BALB/c albino mouse infected with blood trypomastigote stage of Trypanosoma cruzi assessed as change in urea level in serum at 40 mg/kg, ip administered on day 7 to 12 post-infection measured after day 150 relative to control; assay type: organism-based; design: dose 40 mg/kg, route intraperitoneal; conditions: in vivo
Mus musculus [17] = assay: Toxicity in BALB/c albino mouse infected with blood trypomastigote stage of Trypanosoma cruzi assessed as change in urea level in serum at 25 mg/kg, ip administered on day 7 to 12 post-infection measured after day 120 relative to control; assay type: organism-based; design: dose 25 mg/kg, route intraperitoneal; conditions: in vivo
Trypanosoma cruzi [18] = assay: Trypanocidal activity against metacyclic trypomastigote stage of Trypanosoma cruzi infected in BALB/c albino mouse acute chagas disease model assessed as inhibition of parasitemia at 25 mg/kg, ip administered on day 7 to 12 post-infection measured every 2 days until day 40 […] relative to control; assay type: functional; conditions: route intraperitoneal
Trypanosoma cruzi [19] = assay: Trypanocidal activity against metacyclic trypomastigote stage of Trypanosoma cruzi infected in BALB/c albino mouse acute chagas disease model assessed as reduction of parasite burden at 25 mg/kg, ip administered on day 7 to 12 post-infection measured on day 14 by ELISA; assay type: functional, organism-based; design: dose 25 mg/kg
Mus musculus [20] = assay: Toxicity in BALB/c albino mouse assessed as mortality at 25 mg/kg, ip administered for 5 days; assay type: organism-based; design: dose 25 mg/kg, route intraperitoneal; conditions: in vivo, 120 h
Trypanosoma cruzi [21] = assay: Antitrypanosomal activity against trypomastigote stage of Trypanosoma cruzi IRHOD/CO/2008/SN3 assessed as reduction of trypomastigote number per mililiter of culture medium at IC25 preincubated for 12 hrs followed by compound washout measured every 48 hrs for 10 days by Neubauer hemocytometric chamber analysis relative to control; assay type: functional
[22] = Selectivity index, ratio of IC50 for African green monkey Vero cells to IC50 for amastigote stage of Trypanosoma cruzi IRHOD/CO/2008/SN3 infected in African green monkey Vero cells; assay type: toxicity, cell-based; conditions: read-out: Ratio IC50
[23] = Selectivity index, ratio of IC50 for African green monkey Vero cells to IC50 for epimastigote stage of Trypanosoma cruzi IRHOD/CO/2008/SN3; assay type: toxicity, cell-based; conditions: read-out: Ratio IC50
Vero = assay: Cytotoxicity against African green monkey Vero cells assessed as cell viability after 72 hrs by propidium iodide/fluorescein diacetate staining-based flow cytometric analysis; conditions: Chlorocebus sabaeus
Trypanosoma cruzi [24] = assay: Antitrypanosomal activity against amastigote stage of Trypanosoma cruzi IRHOD/CO/2008/SN3 infected in African green monkey Vero cells assessed as parasite growth inhibition after 72 hrs by Giemsa staining-based microscopic analysis; assay type: functional, organism-based; conditions: IRHOD/CO/2008/SN3, Vero
Trypanosoma cruzi [25] = assay: Antitrypanosomal activity against epimastigote stage of Trypanosoma cruzi IRHOD/CO/2008/SN3 assessed as mortality at IC25 after 72 hrs by TEM analysis; assay type: functional, organism-based
Trypanosoma cruzi [26] = assay: Antitrypanosomal activity against epimastigote stage of Trypanosoma cruzi IRHOD/CO/2008/SN3 assessed as appearance of swollen structure filled with empty vacuoles at IC25 after 72 hrs by TEM analysis; assay type: functional, organism-based
Trypanosoma cruzi [27] = assay: Antitrypanosomal activity against epimastigote stage of Trypanosoma cruzi IRHOD/CO/2008/SN3 assessed as change in excreted acetate level at IC25 after 96 hrs by 1H NMR analysis relative to control; assay type: functional
Trypanosoma cruzi [28] = assay: Antitrypanosomal activity against epimastigote stage of Trypanosoma cruzi IRHOD/CO/2008/SN3 assessed as change in excreted alanine level at IC25 after 96 hrs by 1H NMR analysis relative to control; assay type: functional
Trypanosoma cruzi [29] = assay: Antitrypanosomal activity against epimastigote stage of Trypanosoma cruzi IRHOD/CO/2008/SN3 assessed as change in excreted lactate level at IC25 after 96 hrs by 1H NMR analysis relative to control; assay type: functional
Mus musculus [30] = assay: Toxicity in BALB/c albino mouse infected with blood trypomastigote stage of Trypanosoma cruzi assessed as increase in alkaline phosphatase level in serum at 500 mg/kg, ip relative to control; assay type: organism-based; design: dose 500 mg/kg, route intraperitoneal; conditions: in vivo

Molecule `CCCCNc1c(N(C)CCCN(C)C)c(=O)c1=O` has an Activity (Mus musculus [1]) of 30%, an Activity (Mus musculus [2]) of 10% and an Activity (Mus musculus [3]) of 40%. The Activity (Mus musculus [4]) was 30%, the Activity (Mus musculus [5]) was < 10% and the Activity (Mus musculus [6]) was < 10%. The Activity (Mus musculus [7]) was 10%, the Activity (Mus musculus [8]) was 10% and the Activity (Mus musculus [9]) was < 10%. For the same molecule, the Activity (Mus musculus [10]) was 10%, the Activity (Mus musculus [11]) was > 50% and the Activity (Mus musculus [12]) was < 10%. For the same molecule, the Activity (Mus musculus [13]) was < 10%, the Activity (Mus musculus [14]) was < 10% and the Activity (Mus musculus [15]) was 30%. For the same molecule, the Activity (Mus musculus [16]) was < 10%, the Activity (Mus musculus [17]) was < 10% and the inhibition in vivo at 25 mg/kg (Trypanosoma cruzi [18]) was 67%. For the same molecule, the Activity (Trypanosoma cruzi [19]) was “Active”, the Activity (Mus musculus [20]) was “Non-toxic” and the “inhibition (INH)” value (Trypanosoma cruzi [21]) was 75%. It also gave a selectivity ratio [22] of 53.3, a selectivity ratio [23] of 48.2 and an IC50 (Vero) of 453 µM. The IC50 (Trypanosoma cruzi [24]) was 8.5 µM, the Activity (Trypanosoma cruzi [25]) was “Active” and the Activity (Trypanosoma cruzi [26]) was “Active”. For the same molecule, the Activity (Trypanosoma cruzi [27]) was -18.6%, the Activity (Trypanosoma cruzi [28]) was -18.5% and the Activity (Trypanosoma cruzi [29]) was -28.3%. The Activity (Mus musculus [30]) was > 50%.

Source: ChEMBL document CHEMBL3124761, “Synthesis and biological evaluation of N,N'-squaramides with high in vivo efficacy and low toxicity: toward a low-cost drug against Chagas disease” (J Med Chem, 2014)
